PubChem BioAssay AID330 (DTP/NCI, 2004)
Where “and” joins values, the source holds several entries; their conditions need not be identical. Equal entries are not always repeated. Toxic doses and inconclusive results are not listed. How the source made its calls: active means survival T/C of 150% or more; inactive means T/C below 125% in these data.

Tested on: P388 leukemia ip, CD2F1 mice, survival T/C
Experiment: NCI In Vivo Anticancer Drug Screen. Data for tumor model P388 Leukemia (intraperitoneal) in CD2F1 (CDF1) mice
Conditions: endpoint: median survival time, higher = longer survival
Outline: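 Mice carrying the transplanted tumor received test compound or vehicle. Survival was recorded in each group, and the value is the treated-group measurement divided by that of the vehicle-treated control group.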

[1] = dose: 50.0 mg/kg/injection, schedule: Q01DX009 (ip), vehicle: Klucel (hydroxypropylcellulose) (HPC)
[2] = dose: 100.0 mg/kg/injection, schedule: Q01DX009 (ip), vehicle: Klucel (hydroxypropylcellulose) (HPC)

Measured: T/C

CCC[CH2][Sn]([CH3])([CH2]CC[N+](C)(C)C)[O]C(C)=O (stereo unspecified)
inactive: dose: 12.5 mg/kg/injection, schedule: Q01DX009 (ip), vehicle: saline 105 % of control | dose: 25.0 mg/kg/injection, schedule: Q01DX009 (ip), vehicle: saline 106 % of control | dose: 50.0 mg/kg/injection, schedule: Q01DX009 (ip), vehicle: saline 100 % of control and 115 % of control

N#CC(=Nc1ccc(F)cc1F)C1=C(O)c2ccccc2C1=O
inactive: dose: 12.5 mg/kg/injection, schedule: Q01DX005 (ip), vehicle: saline with Tween-80 97 % of control | dose: 25.0 mg/kg/injection, schedule: Q01DX005 (ip), vehicle: saline with Tween-80 105 % of control | dose: 50.0 mg/kg/injection, schedule: Q01DX005 (ip), vehicle: saline with Tween-80 100 % of control

CCOC(=O)N[N+]12CCN(CC1)CC2
inactive: dose: 100.0 mg/kg/injection, schedule: Q04DX003 (ip), vehicle: saline 100 % of control | dose: 200.0 mg/kg/injection, schedule: Q04DX003 (ip), vehicle: saline 102 % of control | dose: 400.0 mg/kg/injection, schedule: Q04DX003 (ip), vehicle: saline 102 % of control

CCn1c2ccccc2c2ccc(N=Cc3ccccc3[N+](=O)[O-])cc21
inactive: dose: 100.0 mg/kg/injection, schedule: Q04DX003 (ip), vehicle: Klucel (hydroxypropylcellulose) (HPC) 98 % of control | dose: 200.0 mg/kg/injection, schedule: Q04DX003 (ip), vehicle: Klucel (hydroxypropylcellulose) (HPC) 97 % of control | dose: 400.0 mg/kg/injection, schedule: Q04DX003 (ip), vehicle: Klucel (hydroxypropylcellulose) (HPC) 96 % of control

COC(=O)c1nnn(-c2cccc(Cl)c2)c1N
inactive: dose: 60.0 mg/kg/injection, schedule: Q01DX005 (ip), vehicle: saline with Tween-80 95 % of control | dose: 120.0 mg/kg/injection, schedule: Q01DX005 (ip), vehicle: saline with Tween-80 95 % of control

N#C/C(=C\c1cccs1)C(=O)c1ccco1
inactive: dose: 50.0 mg/kg/injection, schedule: Q01DX009 (ip), vehicle: saline with Tween-80 101 % of control | dose: 100.0 mg/kg/injection, schedule: Q01DX009 (ip), vehicle: saline with Tween-80 100 % of control | dose: 200.0 mg/kg/injection, schedule: Q01DX009 (ip), vehicle: saline with Tween-80 95 % of control

O=C(/C=N/O)Nc1ccccc1
inactive: dose: 12.5 mg/kg/injection, schedule: Q01DX009 (ip), vehicle: Klucel (hydroxypropylcellulose) (HPC) 100 % of control and 107 % of control | dose: 25.0 mg/kg/injection, schedule: Q01DX009 (ip), vehicle: Klucel (hydroxypropylcellulose) (HPC) 99 % of control and 100 % of control and 106 % of control | [1] 103 % of control and 92 % of control | [2] 101 % of control and 109 % of control and 114 % of control

C=C1[C@H]2C[C@H]2[C@]2(C)C[C@@H]3OC(=O)C(C)=C3C[C@@H]12
inactive: dose: 4.88 mg/kg/injection, schedule: Q01DX005 (ip), vehicle: Klucel (hydroxypropylcellulose) (HPC) 89 % of control | dose: 9.75 mg/kg/injection, schedule: Q01DX005 (ip), vehicle: Klucel (hydroxypropylcellulose) (HPC) 94 % of control | dose: 39.0 mg/kg/injection, schedule: Q01DX005 (ip), vehicle: Klucel (hydroxypropylcellulose) (HPC) 94 % of control | dose: 78.0 mg/kg/injection, schedule: Q01DX005 (ip), vehicle: Klucel (hydroxypropylcellulose) (HPC) 94 % of control

CC1CC(c2ccccc2)(c2ccccc2)C(=O)C(C)N1C (stereo unspecified)
inactive: dose: 50.0 mg/kg/injection, schedule: Q01DX005 (ip), vehicle: Klucel (hydroxypropylcellulose) (HPC) 107 % of control | dose: 100.0 mg/kg/injection, schedule: Q01DX005 (ip), vehicle: Klucel (hydroxypropylcellulose) (HPC) 105 % of control | dose: 200.0 mg/kg/injection, schedule: Q01DX005 (ip), vehicle: Klucel (hydroxypropylcellulose) (HPC) 97 % of control

O=C1NC(=O)c2c(Br)c(Br)c(Br)c(Br)c21
inactive: [1] 109 % of control | [2] 109 % of control | dose: 200.0 mg/kg/injection, schedule: Q01DX009 (ip), vehicle: Klucel (hydroxypropylcellulose) (HPC) 105 % of control | dose: 400.0 mg/kg/injection, schedule: Q01DX009 (ip), vehicle: Klucel (hydroxypropylcellulose) (HPC) 96 % of control

CN(C)C(c1cccnc1)C1COCOC1 (stereo unspecified)
inactive: dose: 50.0 mg/kg/injection, schedule: Q01DX005 (ip), vehicle: saline 109 % of control | dose: 100.0 mg/kg/injection, schedule: Q01DX005 (ip), vehicle: saline 106 % of control | dose: 200.0 mg/kg/injection, schedule: Q01DX005 (ip), vehicle: saline 98 % of control

CC(C)CC(=O)NC(C(=O)NC(C(=O)NC(CC(C)C)C(O)CC(=O)NC(C)C(=O)NC(CC(C)C)C(O)CC(=O)O)C(C)C)C(C)C (stereo unspecified)
inactive: dose: 6.25 mg/kg/injection, schedule: Q01DX009 (ip), vehicle: Klucel (hydroxypropylcellulose) (HPC) 102 % of control | [1] 98 % of control and 122 % of control and 87 % of control | [2] 90 % of control and 95 % of control

COC(=O)c1ccc(C(=S)OC)cc1
inactive: dose: 100.0 mg/kg/injection, schedule: Q04DX002 (ip), vehicle: saline with Tween-80 108 % of control | dose: 200.0 mg/kg/injection, schedule: Q04DX002 (ip), vehicle: saline with Tween-80 100 % of control | dose: 400.0 mg/kg/injection, schedule: Q04DX002 (ip), vehicle: saline with Tween-80 101 % of control
